Consider two molecules from patent US20080287541A1, “Kit for Treatment of Cancer” (Redoxia Israel Ltd., priority 2004, published 2008).

Values joined by “and” are separate entries in the source; they are usually repeats but may differ in a detail not shown here. Equal entries are not always repeated.

The subject of one test is various cell lines. Conditions: BSO by itself; Dai et al. (1999); cited from earlier work.
A further test has as its system neuroblastoma cells. Conditions: Nicole et al. (1998); cited from earlier work.
Test [1] relates to MX-1 mammary carcinoma cells. Put plainly: 3H-Thymidine incorporation (proliferation) assay. Type of test: cell-based, human. Conditions: positive control, 10^−5 M doxorubicin; negative control = 100%. (Uptake of a labelled nucleoside into DNA is a usual measure of proliferation.)
Protocol: Test compounds: Tested substances were dissolved in the appropriate medium as follows: carmustine (Sigma) was dissolved in ethanol, disulfiram (DSF) (Sigma) and curcumin (Fluka) were dissolved in dimethyl sulfoxide (DMSO), and DL-buthionine-sulfoximine (BSO) (Fluka) was dissolved in growth medium.
Compounds were added in a 1:10 serial dilution to the wells to obtain range of 10^−3 M to 10^−8 M final concentrations.
Controls: Positive control—10^−5M Doxorubicin. Negative control—Media containing the compound's solvent.
Cell lines: MX-1 mammary carcinoma cells were grown in RPMI-1640 medium, supplemented with 10% FBS, 2 mM L-glutamine, 1% penicillin/streptomycin and 1% non-essential amino acids.
MX-1 culturing and sub-culturing: MX-1 cells were grown in 75 cm^2 culture flasks. The culture medium was changed every other day and the day before the experiment. […]
Thymidine incorporation (proliferation) assay and cells harvesting: 24 hours after administering the compounds, to each well in the culture plates, ^3H-thymidine (NET-027 Thymidine [methyl-^3H] from NEN, 6.7 Ci/mmol) was added to final concentration of 0.4 μCi/well. […] Radioactivity was determined after adding 180 μl scintillation liquid (Microscint 20™, Packard).
Data calculation: The data represent the mean amount of thymidine counted per well (CPM). Average and standard deviation (SD) were calculated for each plate (12 wells). […]

On to `CCCCS(=N)(=O)CCC(N)C(=O)O` (racemic) [BSO, buthionine sulfoximine], for which the “decrease in [GSH] in the cell” value in the test with various cell lines is listed as 70%. The “decrease of GSH content” value with neuroblastoma cells is given as 98%. With `COc1cccc2c1C(=O)c1c(O)c3c(c(O)c1C2=O)C[C@@](O)(C(=O)CO)C[C@@H]3O[C@H]1C[C@H](N)[C@H](O)[C@H](C)O1` [doxorubicin, Doxorubicin], in test [1], the Cell proliferation rate is 4-11% and 4%.
